Reference: patent US4457864A, “Synthetic analogues of α-melanotropin” (University Patents, Inc., priority 1981, dated 1984)
“Also recorded” adds a separate entry of the source. Read-outs that look alike come from different tables or passages of the source.

Legend:
[1] = literature reports, cited from earlier work
[2] = resistance to serum proteolytic enzyme degradation, residual activity by in vitro frog skin bioassay; type: in vitro ADME; conditions: 10 nM peptide, 37° C., Ham's F-10 with 10% horse serum and 2% fetal calf serum, up to 72 hours; FIG. 3
Procedure: Synthetic α-MSH, [Nle^4 ]-α-MSH and [Nle^4, D-Phe^7 ]-α-MSH were incubated (37° C.) under sterile conditions in Corning flasks containing Ham's F-10 media containing 10% horse serum and 2% fetal calf serum. Samples of the media containing the peptides (10 nM) were removed at time zero and at 24, 48 and 72 hours. The samples were immediately frozen and assayed for biological activity using the in vitro frog skin bioassay.

[3] = tested on: adenylate cyclase in Cloudman S-91 mouse melanoma tumors; conditions: Sawyer et al.; cited from earlier work
[4] = cited from earlier work
frog (Rana pipiens) = experiment: in vivo skin darkening (reflectance) in frogs after a single subcutaneous injection
Description: (§1) [Nle^4, D-Phe^7 ]-α-MSH was examined for its biological effects on melanosome dispersion in vivo, using the frog (Rana pipiens), and the lizard (Anolis carolinensis). See, Hadley, et al. Science, 213, pp. 1025-1027 (1981).
Frogs of both sexes were placed in white plastic containers with a small amount of water under overhead illumi-nation. Under these conditions, the animals became light green in color, presumably because they were not releasing any endogenous α-MSH. Forty-eight hours later, light reflectance from the dorsal surface of the animals was measured with a Photovolt reflectometer. At this time, the frogs were injected subcutaneously with Ringer solution (controls) or Ringer solutions containing α-MSH, [Nle^4 ]-α-MSH, or [Nle^4, D-Phe^7 ]-α-MSH (100 μl of a 10^-4 M solution per 10 g of body weight) to provide a final body concentration of approximately 18 μg/10 g. Subsequent reflectance values were taken at 2- to 3-day intervals for 6 weeks.

amphibian melanophores = conditions: Sawyer et al.; cited from earlier work
[5] = tested on: lizard (Anolis carolinensis); experiment: in vivo skin darkening in lizards after a single injection; conditions: 18 μg/10 g final body concentration
Description: as §1

[6] = tested on: frog (Rana pipiens) skin melanophores; experiment: in vitro frog skin bioassay, duration of melanosome dispersion; type: cell-based
Procedure: Variation in biological effects of α-MSH analogues are generally discussed in terms of "potentiation" (increased activity relative to naturally-occurring α-MSH) and "prolongation". Such effects are measured by the classic frog skin bioassay system. See, Shizume, et al., Endocrinology, 54, 553-560 (1954). Because α-MSH has an extremely short half-life in serum (about 2 minutes), synthetic analogues having greater serum stability in addition to greater potency and prolongation characteristics have been sought.
[Nle^4, D-Phe^7 ]-α-MSH was examined with respect to the duration of its ability to stimulate melanosome dispersion in vitro using the frog (Rana pipiens) skin bioassay as described in Shizume, Endocrinology 54, 553-560 (1954).

[7] = tested on: adenylate cyclase in Cloudman S-91 mouse melanoma tumors; experiment: retention of adenylate cyclase activity after iodination; type: biochemical; conditions: iodinated through use of lacto peroxidase or iodogen
Procedure: (§2) The relative effects of α-MSH, [Nle^4 ]-α-MSH and [Nle^4, D-Phe^7 ]-α-MSH on mammalian melanoma adenylate cyclase activity in vitro were determined by assaying [^α-32 P] ATP conversion to [^32 P]cAMP in Cloudman S-91 mouse melanoma tumors as described in Sawyer, et al., supra. [^32 P]cAMP was isolated, purified and dectected according to Salomon et al., Anal. Biochem., 58, pp. 541-48 (1974).
The procedures of Hunter, et al., Nature, 194, pp. 495-496 (1962) were applied to [Nle^4, D-Phe^7 ]-α-MSH and the resultant compound was tested for adenylate cyclase activity as in Example 2.

[8] = tested on: Cloudman S-91 NCTC 3960 (CCL 53.1) melanoma cells; experiment: tyrosinase activity of melanoma cells in tissue culture (3H2O release from [3H]tyrosine); type: cell-based, mouse; conditions: 0.1 μM melanotropin, exposure 0.5, 4 and 8 hr, then 24 hr with [3H]tyrosine; FIG. 2
Procedure: Cloudman S-91 NCTC 3960 (CCL 53.1) melanoma cells were obtained from the American Type Culture Collection Cell Repository and were grown and maintained as described in Fuller, et. al. Pigment Cell, 4 pp. 97-104 (1979). Melanoma cells (2×10^5) were seeded in 25 cm^2 flasks and allowed to attach overnight. At time t=0, the medium in all the flasks was replaced with 4 ml of medium containing 0.1 μM melanotropin (i.e., α-MSH, [Nle^4 ]-α-MSH, or [Nle^4, D-Phe^7 ]-α-MSH) or a control medium containing no melanotropin. At selected time intervals (t=0.5, 4, and 8 hr.) the control medium and melanotropin-containing medium was removed. The cells were carefully rinsed three times with fresh melanotropin-free medium and then exposed to fresh melanotropinfree medium containing [^3 H]-tyrosine (specific activity 48 Ci/mmol; 1 Ci=3.7×10^10 becquerels) at 1 μCi/ml. After 24 hr, this medium was removed and the tyrosinase activity of the melanoma cells was determined by assaying for the ^3 H2 O released from the [^3 H]tyrosine by the action of tyrosinase.
Tyrosinase activities are expressed as percent activity of control cells (i.e., cells not exposed to melanotropin). Each bar represents the mean of four determinations ±SEM.

[9] = tested on: adenylate cyclase in Cloudman S-91 mouse melanoma tumors; experiment: melanoma adenylate cyclase activity in vitro ([α-32P]ATP conversion to [32P]cAMP); type: biochemical
Procedure: as §2

[10] = cited from earlier work; remark: listed apart in the source
[11] = s.c., 18 μg/10 g, single injection

For [D-Ser^1]-α-MSH, the “potency / activity relative to the natural hormone” value [1] is given as “diminished potency” and the “potency / activity relative to the natural hormone” value ([1]; listed as D-Ser^1) is given as “no more active than the native hormone”.

For [D-Tyr^2 ]-α-MSH, the “potency / activity relative to the natural hormone” value [1] is listed as “significantly less potent; also recorded: diminished potency”.

In the case of [Nle^4 ]-α-MSH, the “loss of biological activity on incubation in serum-containing medium” value [2] is given as “lost essentially all biological activity”, the “potency in stimulating melanoma adenylate cyclase activity relative to α-MSH” value [3] is given as “approximately twice as potent” and the “biological activity upon subsequent exposure to sodium iodide” value ([4]; after chloramine-T, further contact with sodium iodide) is given as “inactivated; also recorded: loses activity”. For the same substance, the “biological activity after chloramine-T treatment” value ([4]; chloramine-T, oxidant used in peptide iodination) was “resistant to inactivation; also recorded: retains activity”, the “duration of darkening effect compared with α-MSH” value (frog (Rana pipiens); [11]) was “effective for only a slightly longer period than α-MSH” and the “potency in dispersing amphibian melanophores relative to α-MSH” value (amphibian melanophores) was “approximately twice as potent”.

With [Nle^4, D-Phe^7 ]-α-MSH the “duration of prolonged skin darkening” value [5] was “about 3 days”, the “loss of biological activity on incubation in serum-containing medium” value [2] was “almost totally resistant to loss of biological activity” and the “duration of melanosome dispersion in vitro” value [6] was “"prolonged" biological effect superior to α-MSH and [Nle^4 ]-α-MSH”. For the same substance, the “degree of skin darkening in vivo” value (frog (Rana pipiens); s.c., 18 μg/10 g final body concentration) was “Maximum darkening”, the “skin darkening remaining at 6 weeks” value (frog (Rana pipiens); s.c., 18 μg/10 g, 6 weeks after single injection) was “half-maximum darkening” and the “darkening effect of lower dose compared with higher dose” value (frog (Rana pipiens); single injection, 0.18 μg/10 g versus 18 μg/10 g final body concentration) was “nearly as effective as the higher dose”. For the same substance, the “adenylate cyclase activity after iodination” value [7] was “fully retained its activity”, the “tyrosinase activity compared with α-MSH and [Nle4]-α-MSH” value [8] was “much more active” and the “maximal adenylate cyclase activity compared with α-MSH and [Nle4]-α-MSH” value ([9]; FIG. 1) was “same maximal adenylate cyclase activity”. The “potency in stimulating adenylate cyclase relative to the native hormone (α-MSH)” value ([9]; dose-response curves of FIG. 1, Cloudman S-91 mouse melanoma) was 26 times.

In the case of α-Melanotropin [α-MSH], the half-life in serum [10] is listed as “about 2 minutes”, the “biological activity upon oxidative iodination” value ([4]; iodination for radiolabelling) is listed as “essentially inactivated; also recorded: loses biological activity” and the “time by which the darkening effect was totally lost” value (frog (Rana pipiens); [11]) is listed as at most 2 days.
